The subject of series [1] is Salmonella typhimurium, strains TA98 and TA100. Kind of series: Mutagenicity assessment (bacterial reverse mutation screen). The conditions noted are these: TA98 and TA100, presence or absence of S-9 mix, up to 5000 μg/plate. The format is cell-based. As for the experimental part:
Studies were conducted by Sequani (Ledbury, Herefordshire, UK) to assess the compound of Example 77 in vitro for its ability to induce mutations in two histidine dependent auxotrophic mutants of Salmonella typhimurium, strains TA98 and TA100.
The mutation screen was conducted using the plate incorporation method and was performed in both the presence and absence of S-9 mix (a liver post-mitochondrial fraction derived from the livers of Aroclor 1254 treated rats). The bacteria were exposed to the compound of Example 77 dissolved in dimethylsulphoxide, which solvent was also used as the negative control. The dose levels used were 0.32, 1.6, 8, 40, 200, 1000 or 5000 μg/plate.

The target in the next series is B-Raf (V600e) (Homo sapiens (Human), UniProt P15056, V600E). Kind of series: Enzyme binding assay (KINOMEscan). As for the experimental part: The kinase enzyme binding activities of compounds disclosed herein were determined using a proprietary assay which measures active site-directed competition binding to an immobilized ligand (Fabian, M. A. et al., Nature Biotechnol., 2005, 23:329-336). These assays were conducted by DiscoverX (formerly Ambit; San Diego, Calif.). The percentage inhibition produced by incubation with a test compound is calculated relative to the non-inhibited control.
B-Raf (V600e), sequence (P15056 whole entry V600E): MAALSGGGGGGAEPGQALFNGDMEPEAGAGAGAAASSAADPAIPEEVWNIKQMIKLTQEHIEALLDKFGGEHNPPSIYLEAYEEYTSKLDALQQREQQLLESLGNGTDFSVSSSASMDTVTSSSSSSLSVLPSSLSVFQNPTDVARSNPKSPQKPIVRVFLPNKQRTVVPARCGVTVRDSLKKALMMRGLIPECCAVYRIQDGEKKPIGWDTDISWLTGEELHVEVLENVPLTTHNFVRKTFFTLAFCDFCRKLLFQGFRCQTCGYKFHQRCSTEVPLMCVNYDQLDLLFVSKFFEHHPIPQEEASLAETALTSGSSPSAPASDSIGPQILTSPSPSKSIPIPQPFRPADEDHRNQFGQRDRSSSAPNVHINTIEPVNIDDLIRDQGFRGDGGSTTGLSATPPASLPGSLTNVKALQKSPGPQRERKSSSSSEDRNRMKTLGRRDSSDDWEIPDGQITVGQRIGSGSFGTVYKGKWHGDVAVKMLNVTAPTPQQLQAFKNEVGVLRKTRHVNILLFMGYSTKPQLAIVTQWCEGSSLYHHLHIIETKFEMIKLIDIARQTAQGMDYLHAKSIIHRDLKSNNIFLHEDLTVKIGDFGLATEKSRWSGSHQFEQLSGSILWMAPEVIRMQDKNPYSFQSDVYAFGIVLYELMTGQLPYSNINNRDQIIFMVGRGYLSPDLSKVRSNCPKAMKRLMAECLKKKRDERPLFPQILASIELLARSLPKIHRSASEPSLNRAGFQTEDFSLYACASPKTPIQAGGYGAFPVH

Series [2] in a line: Pharmacokinetics and total colon tissue distribution in mice. The conditions noted are these: male, Mouse, 5 mg/kg p.o. The format is in vivo, male C57BL/6 mice. As for the experimental part:
Studies were conducted by Sai Life Sciences (Hinjewadi, Pune, India) to investigate the pharmacokinetics and total colon tissue distribution of the compound of Example 77 in male C57BL/6 mice following a single oral administration.
A group of twenty one male mice were dosed with a suspension formulation (in peanut oil) of the compound of Example 77, at a dose of 5 mg/kg. Blood samples (approximately 60 μL) were collected from retro orbital plexus such that the samples were obtained at 1, 2, 4, 6, 8, 12 and 24 hr. The blood samples were collected from a set of three mice at each time point in labelled micro centrifuge tube containing K2EDTA as anticoagulant. Plasma samples were separated by centrifugation at 4000 rpm for 10 min of whole blood and stored below −70° C. until bioanalysis. After collection of blood sample, animals were humanely euthanized by carbon dioxide asphyxiation to collect total colon tissues. The colons were flushed with cold phosphate buffer saline (pH 7.4) to remove contents. The total colon tissues were homogenized with cold phosphate buffer saline (pH 7.4) of twice the weight of colon tissue and stored below −70° C. Total volume was three times the total colon tissue weights. All samples were processed for analysis by protein precipitation using acetonitrile and analyzed with developed LC-MS/MS method (LLOQ: 2.02 ng/mL in plasma and 1.01 ng/mL in colon tissue). Pharmacokinetic parameters were calculated using the non-compartmental analysis tool of Phoenix WinNonlin® software (version 6.3).

Another series relates to BDF1 mice. The series is described as follows: (C) TNBS-induced colitis in mice. The format is in vivo, mouse. More on the design: TNBS Ulcer grade / TNBS LP inflammation: scale not given here. The conditions noted are these: 2 days; for TNBS LP inflammation / TNBS Ulcer grade: mice. On the procedure:
Non-fasted, 10-12 week old, male BDF1 mice are dosed by oral gavage twice daily with either vehicle (5 mL/kg), reference item (Budesonide 2.5 mg/kg) or test compound (1, 5 or 50 mg/kg) one day before (Day −1) stimulation of the inflammatory response by treatment with 2,4,6-trinitrobenzenesulphonic acid (TNBS) (15 mg/mL in 50% ethanol/50% saline). On Day 0 of the study TNBS (200 μL) is administered intra-colonically via a plastic catheter followed by BID dosing of the vehicle, reference or test compound for 2 or 4 days. During the study animals are weighed every day and stool observations are made and recorded as a score, based on stool consistency. At the time of sacrifice on Day 2 (or Day 4) the large intestine is removed and the length and weight recorded. Sections of the colon are taken for either MPO analysis to determine neutrophil infiltration or for histopathology involving scoring to determine disease severity.

Where [3] appears, read: C57BL/6, total colon tissue, po, Total colon.

Structures are written as SMILES.

A word on the AUC(0-inf): it is total exposure, with the tail of the curve extrapolated. The AUC(0-t) is exposure summed from dosing to a finite time, without extrapolation to infinity. As a reminder, the Cmax is the maximum level reached in the sampled fluid or tissue. One may read the Tmax as the time from dosing to the highest level. Turning to `C#Cc1cc(Nc2nccc(Oc3ccc(NC(=O)Nc4cc(C(C)(C)C)nn4-c4ccc(OC)cc4)c4ccccc34)n2)cc(C(=O)NCCN2CCOCC2)c1` [Example 77, 3-((4-((4-(3-(3-(tert-Butyl)-1-(4-methoxyphenyl)-1H-pyrazol-5-yl)ureido)-naphthalen-1-yl)oxy)pyrimidin-2-yl)amino)-5-ethynyl-N-(2-morpholinoethyl)benzamide], in series [1], the “ability to induce mutations (revertant colonies)” value is given as “no dose-related or statistically significant increases in revertant colonies”. Further, at B-Raf (V600e), the “effect on the binding of the kinase B-Raf (V600e) to its standard ligand” value is reported as “did not have any effect”. In addition, in series [2] (C57BL/6, po, Plasma), the AUC(0-inf) was 29 ng·h/mL, the AUC(0-t) turned out to be 22 ng·h/mL, the highest concentration (Cmax) turned out to be 3.5 ng/mL and the Tmax was 1 h. In addition, in series [2] (setting [3]), the area under the curve AUC(0-inf) is 9280 ng·h/mL, the area under the curve AUC(0-t) is 7480 ng·h/mL, the highest level (Cmax) was 1070 ng/mL and the time to peak (Tmax) was found to be 4 h. Also, in the series on BDF1 mice (TNBS-induced colitis, dosed orally at 5 mg/kg), the “histopathology analysis, in vivo model of colonic inflammation” value is recorded as “significant activity”. Besides, in the series on BDF1 mice (1 mg/kg oral BID), the “TNBS LP inflammation” value worked out at 2.4 ± 0.3 and the “TNBS Ulcer grade” value is listed as 3.1 ± 0.5. Also, in the series with BDF1 mice (5 mg/kg oral BID), the “TNBS LP inflammation” value came out at 2.1 ± 0.3 and the “TNBS Ulcer grade” value worked out at 2.4 ± 0.5.

For the origin of these results see US9701670B2, “Pyrazolyl-ureas as kinase inhibitors” (RESPIVERT LIMITED, priority 2013, dated 2017).
